Tests used:
[1] = system: human lung mast cells (HLMC); experiment: Histamine release assay, anti-IgE-induced histamine release from purified human lung mast cells; format: cell-based
Procedure: (§1) Lung fragments were washed with Tyrode's buffer containing (g/l): NaCl, 8.0; KCl, 0.2; NaH2PO4, 0.05; and glucose, 1.0. The buffer was titrated to pH 7.2 by the addition of NaHCO3. Mast cell isolation and elutriation were performed in a buffer designated “TGMD”, prepared from Tyrode's buffer to which the following were added (g/l): gelatin (1.0), magnesium (0.25; 1 mM), and DNase (0.01). The buffer designated “PAGCM” was a Pipes-albumin (0.003%) buffer containing (g/l): glucose (1.0), CaCl2.2H2O, 0.14 (1 mM); and MgCl2.6H2O, 0.2 (1 mM).
(§2) Mast cells were dispersed from human lung by methods previously reported (Schulman et al., J. Immunol. 29:2662-2667 (1982); Schulman et al., J. Immunol. 131:1936-1941 (1983)). Briefly, lung specimens obtained at thoracotomy for bronchogenic carcinoma were finely minced and extensively washed in divalent cation-free Tyrode's buffer. Fragments were briefly incubated in a mixture of pronase (2 mg/ml) and chymopapain (0.5 mg/ml). Freed cells were harvested through Nytex nylon cloth (150 microns pore size). Residual fragments were further exposed to a mixture of collagenase (1 mg/ml) and elastase (10 units/ml). All incubations and washes were performed at 37° C.; recovered cells were immediately washed three times in large volumes of TGMD. Mast cell purities in these human lung cell suspensions ranged from 1-8% as determined by alcian blue staining (Gilbert et al., Blood 46:279-285 (1975)). Lung mast cells were further purified, by counter-current elutriation, using previously reported methods (Schulman et al., J. Immunol. 131:1936-1941 (1983)). Mast cells were purified (80->98%) by flotation of enriched elutriation fractions through a discontinuous Percoll gradient (Ishizaka et al., J. Immunol. 130:2357-2362 (1983)). Further mast cell purification was accomplished by immunomagnetic negative selection against CD2, CD3, CD4, CD8, CD14, CD16, CD21 and HLADR to ensure against contamination by T cells, B calls, NK cells, monocytes, and dendritic cells prior to mast cell stimulation using previously described methods (Jaffe et al., Am. J. Respir. Cell. Mol. Biol. 13:665-675 (1995); Jaffe et al., Am. J. Respir. Cell. Mol. Biol. 15:473-481 (1996)).
The concentrations of anti-IgE produce 30-70% of maximal release. Twenty minutes following activation, cells were rapidly pelleted and supernatants removed for histamine analysis. Histamine release was expressed as the net histamine released divided by the total histamine content×100%. The total cellular histamine content was determined following cell lysis with 2% perchloric acid. Spontaneous histamine release was always <2% of cellular histamine and generally <1%. Histamine measurements were performed using the automated spectrofluorometric method of Technicon (Tarrytown, N.Y.). Variations between replicates were consistently <5%. All assays were run in duplicates.

[2] = system: human lung mast cells (HLMC); experiment: Direct induction of histamine release from HLMC without anti-IgE; format: cell-based; details: for direct induction of histamine release: no anti-IgE
Procedure: as §1
as §2, with “Further mast cell purification was accomplished by immunomagnetic negative selection against CD2, CD3, CD4, CD8, CD14, CD16, CD21 and HLADR to ensure against contamination by T cells, B calls, NK cells, monocytes, and dendritic cells prior to mast cell stimulation using previously described methods (Jaffe et al., Am. J. Respir. Cell. Mol. Biol. 13:665-675 (1995); Jaffe et al., Am. J. Respir. Cell. Mol. Biol. 15:473-481 (1996)).” left out
The concentrations of anti-IgE produce 30-70% of maximal release. […] Histamine release was expressed as the net histamine released divided by the total histamine content×100%. The total cellular histamine content was determined following cell lysis with 2% perchloric acid. […]

[3] = system: rat peritoneal mast cells; details: cited from earlier work
[4] = biological target: human P2Y1 receptor (Homo sapiens, UniProt P47900); details: cited from earlier work
Chain of human P2Y1 receptor (P47900 whole entry): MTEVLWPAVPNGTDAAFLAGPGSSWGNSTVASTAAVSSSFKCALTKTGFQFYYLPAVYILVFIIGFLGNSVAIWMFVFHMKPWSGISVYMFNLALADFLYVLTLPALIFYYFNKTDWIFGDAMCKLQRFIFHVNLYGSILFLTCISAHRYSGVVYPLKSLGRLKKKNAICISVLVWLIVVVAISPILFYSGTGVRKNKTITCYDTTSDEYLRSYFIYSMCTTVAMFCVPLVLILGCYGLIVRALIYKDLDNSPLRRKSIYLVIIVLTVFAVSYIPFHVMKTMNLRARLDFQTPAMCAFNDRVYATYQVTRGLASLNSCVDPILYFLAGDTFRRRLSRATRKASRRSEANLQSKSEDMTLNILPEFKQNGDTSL

[5] = system: HLMC; experiment: Functional ectoATPase assay of HLMC (HPLC detection of purine compounds); format: in vitro ADME, human; details: 10^−4M ATP, anti-IgE activated HLMC, 15 + 20 min incubation, n=3
Procedure: The supernatants were separated from the cells by centrifugation at 14,000-×g for 5 minutes and kept at −20° C. until analyzed by HPLC. The method of Stocci et al., Anal. Biochem. 167:181-90 (1987) was used for the detection of the purine compounds. The HPLC system consisted of Waters 600E controller, Waters Novapak 4 μm 3.9×150 mm C18 column, and a 990 photodiode array detector. The solvent consisted of 0.1 mM KH2PO4, 8 mM tetrabutylammonium hydrogen sulfate (TAHS) pH 6.0 (buffer A), and 0.1 mM KH2PO4, 8 mM TAHS pH 6.0 with 30% (v/v) methanol (buffer B). The flow rate was 1 ml/min. with the following gradient program: 100% A to 2.5 min., linear gradient to 20% B at 5 min, to 40% B at 10 min., to 100% at 13 min., then 100% B to 30 min. 100 μl of supernatant (neat) was injected and the separation monitored at 254 nm over the 30 minute run time. The ATP peak areas were calculated and compared among the conditions. […] The data are the result of three experiments.

[6] = Example 5, 10^−4M, control 10.3±3.0%, n=6
[7] = Example 5, 10^−5M, control 10.3±3.0%, n=6
[8] = Example 4, 10^−4M (equimolar), control 14.9±3.9%, six experiments, p<0.05
[9] = Example 3, control 9.9±3.1%, n=10
[10] = Example 3, control 9.9±3.1%, ten experiments

Nc1ncnc2c1ncn2[C@@H]1O[C@H](CO)[C@@H](O)[C@H]1O [adenosine]
anti-IgE-induced histamine release ([1]; Example 5, 10^−3 M, control 10.3±3.0%, n=6, p<0.05): 5.3±1.9% | anti-IgE-induced histamine release [1, 6]: 11.2±4.7% | anti-IgE-induced histamine release [1, 7]: 13.4±5.6% | direct induction of histamine release ([2]; adenosine alone): did not directly induce histamine release

uracil triphosphate [UTP]
achieving mediator release in comparison with ATP ([3]; 10^−4M): almost inactive | anti-IgE-induced histamine release [1, 8]: 19.2±5.0%

adenosine-2′-phosphate-5′-phosphoribose
agonist activity at the human P2Y1 receptor [4]: Partial agonists

CSc1nc(N)c2ncn([C@@H]3O[C@H](COP(=O)(O)OP(=O)(O)OP(=O)(O)O)[C@@H](O)[C@H]3O)c2n1 [2-mSATP, 2methylthio-ATP]
anti-IgE-induced histamine release [1, 9]: 14.3±3.9%

Cc1nc(N=Nc2ccc(S(=O)(=O)O)cc2S(=O)(=O)O)c(COP(=O)(O)O)c(C=O)c1O [PPADS, pyridzalphosphate-6-azophenyl-2′,4′-disulfonic acid]
anti-IgE-induced histamine release with ATP after preincubation with antagonist ([1]; Example 9, ATP alone 15.7±7.1%, no significant modulation): 16.1±5.9%

Nc1ncnc2c1ncn2[C@@H]1O[C@H](COP(=O)(O)O)[C@@H](OP(=O)(O)O)[C@H]1O [A3P5P, adenosine-3′-phosphate-5′-phosphate]
agonist activity at the human P2Y1 receptor [4]: devoid of agonist activity

Nc1ncnc2c1ncn2[C@@H]1O[C@H](COP(=O)(O)O)[C@@H](O)[C@H]1OP(=O)(O)O [A2P5P, adenosine-2′-phosphate-5′-phosphate]
agonist activity at the human P2Y1 receptor [4]: Partial agonists

Nc1ncnc2c1ncn2[C@@H]1O[C@H](COP(=O)(O)OP(=O)(O)OP(=O)(O)O)[C@@H](O)[C@H]1O [ATP, adenosine 5′-triphosphate]
concentration of maximum mediator secretion ([3]; depressed by Ca^2+ and Mg^2+): 2 µM | concentration that inhibits mediator release ([3]; in the presence of millimolar Ca^2+): above 3 μM | area under the ATP peak vs control (ATP alone without HLMC) [5]: no noticeable decrease | anti-IgE-induced histamine release ([1]; 10^−3M, n=9, control 10.1+3.4%, not statistically significant (p>0.05)): 14.0+2.4% | effect on anti-IgE-induced histamine release ([1]; 10^−4M, 9 of 9 experiments, control 10.1+3.4%, p<0.05): enhanced histamine release | anti-IgE-induced histamine release ([1]; 10^−4M, high responders, control 24.2±4.2%, n=7): 32.9±4.5% | percent enhancement of anti-IgE-induced histamine release ([1]; 10^−4M, high responders, n=7): 35% | anti-IgE-induced histamine release ([1]; 10^−4M, low responders (<3%), control 1.8±0.4%, n=6): 13.5±2.7% | percent enhancement of anti-IgE-induced histamine release ([1]; 10^−4M, low responders, n=6): 750% | enhancement of anti-IgE-induced histamine release (absolute) ([1]; 10^−4M, lowest and highest anti-IgE responsive preparations): 8-10% | effect on anti-IgE-induced histamine release ([1]; 10^−5M, 9 of 9 experiments, control 10.1+3.4%, p<0.05): enhanced histamine release | effect on anti-IgE-induced histamine release ([1]; 10^−6M, six preparations): no effects | anti-IgE-induced histamine release ([1]; ATP 10^−4M, 20 anti-IgE-responsive preparations, control 10.9+2.7%, p<0.01): 19.2+2.9% | anti-IgE-induced histamine release [1, 9]: 17.7±4.1% | anti-IgE-induced histamine release [1, 8]: 23.0±4.7% | anti-IgE-induced histamine release [1, 6]: significantly enhanced | anti-IgE-induced histamine release [1, 7]: significantly enhanced | anti-IgE-induced histamine release ([1]; Example 9, ATP 10^4−M, control 11.2±5.3%, four experiments): 15.7±7.1% | effect in preparations that failed to respond to anti-IgE alone ([1]; preincubation 10^−6-10^−3M, 3/23 preparations): without effect | direct induction of histamine release ([2]; ATP 10^−7M-10^−3M, n=23): did not directly induce histamine release | histamine release on ATP challenge ([2]; Ca^2+-free and Mg^2+-free media, results not shown): failed to provoke histamine release

Nc1ncnc2c1ncn2[C@@H]1O[C@H](COP(=O)(O)CP(=O)(O)OP(=O)(O)O)[C@@H](O)[C@H]1O [α,βmATP, α,βmethylene-ATP]
induction of mediator release [3]: inactive | effect on anti-IgE-induced histamine release [1, 10]: enhanced

Nc1ncnc2c1ncn2[C@@H]1O[C@H](COP(=O)(O)OS(=O)(=O)O)[C@@H](OP(=O)(O)O)[C@H]1O [A3P5PS, adenosine-3′-phosphate-5′-phosphosulfate]
agonist activity at the human P2Y1 receptor [4]: devoid of agonist activity

Nc1ncnc2c1ncn2[C@@H]1O[C@H](COP(=O)(O)OP(=O)(O)CP(=O)(O)O)[C@@H](O)[C@H]1O [β,γmATP, β,γmethylene-ATP]
induction of mediator release [3]: inactive | effect on anti-IgE-induced histamine release [1, 10]: enhanced

— patent US6465441B2, “Screening method for modulation of human mast cell activation” (Duska Scientific Co., priority 1997, dated 2002)
